This is an account of results in patent publication US11458153B2, “Drug delivery composition comprising a self-assembled gelator” (The Brigham and Women's Hospital, Inc., priority 2008, dated 2022).

Each structure is given as a SMILES string. Entries after “also recorded” stand apart in the source; their conditions may differ.

Data set [1] relates to mesenchymal stem cells (MSCs). Kind of data set: MSC adipogenic differentiation, Oil Red O staining. It counts as cell-based, human. The following applies: 250 μM, 23 days of induction. The method, then:
Unlike typical fibroblast cell lines used for toxicity screening, cultured mesenchymal stem cells are highly sensitive to the presence of soluble factors and can often loose their capacity for multi-lineage differentiation or differentiate into non-desired lineages depending on the culture conditions. To examine the impact of the acetaminophen amphiphilic prodrugs on multi-lineage differentiation of MSCs, cells were treated with adipogenic and osteogenic induction media in presence of amphiphiles followed by respective colorimetric histological staining.
Adipogenic Differentiation. MSCs were seeded in the wells of 24 well plates, and were culture in MSC expansion media until they reach 90% confluence (note: in control samples there was no amphiphile present, whereas in experimental samples 250 μM of Apn-based amphiphile was present). Adipogenic differentiation was induced by culturing the cells for 23 days in adipogenic induction media (from Lonza—MSCs Adipogenic Single Quote kit containing h-Insulin (recombinant), L-Glutamine, Dexamethasone, Indomethacin, IBMX (3-isobuty-1-methyl-xanthine), Pen/Strep) and adipogenic maintenance media (from Lonza—MSCs Adipogenic Single Quote kit containing h-Insulin (recombinant), L-Glutamine, Pen/Strep). […] Adipogenesis was evaluated by Oil Red O staining. Following aspiration of the media, cells were washed once with PBS, and fixed in PBS with 3.7% formaldehyde for 30 min at room temperature. Following fixation cells were rinsed with distilled water for a few minutes, and incubated with isopropanol containing an Oil Red O working solution (prepared by diluting 30 mL of 0.5% isopropanol/Oil Red O solution with 20 mL of distilled water). After 45 minutes culture well were rinsed twice with distilled water and 1 mL of hematoxylin was added to each well for 1 minute followed by aspiration and washing with distilled water. The wells were viewed using an inverted phase contrast microscope.

Data set [2] has as its target T1, lipase (Lipolase 100L, Type EX) (Thermomyces lanuginosus, UniProt O59952).
T1 construct: purchased Novozymes through Brenntag North America Lipolase 100L, Type EX
T1 sequence (O59952 23-291): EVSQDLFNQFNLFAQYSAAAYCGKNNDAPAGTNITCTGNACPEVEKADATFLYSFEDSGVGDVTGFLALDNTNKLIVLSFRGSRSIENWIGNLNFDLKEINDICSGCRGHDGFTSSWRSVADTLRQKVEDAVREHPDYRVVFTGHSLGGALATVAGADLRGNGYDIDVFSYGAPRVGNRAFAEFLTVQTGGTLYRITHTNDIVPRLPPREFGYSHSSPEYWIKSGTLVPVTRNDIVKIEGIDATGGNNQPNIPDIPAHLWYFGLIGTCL
Kind of data set: Enzyme-triggered hydrogel degradation and drug release. It counts as in vitro ADME. As for the experimental part: Encapsulation and release of curcumin was previously studied by the Ultra-Violet absorbance spectroscopy (λmax at 424 nm). Absorbance spectrum of modified Apn-7-COOH was similar to that of Apn (FIG. 6B). In this instance, enzyme-triggered single and multiple drug delivery has been carried out using two sets of hydrogel samples, i.e., hydrogels of Apn-7-COOH and Apn-8-Apn with and without curcumin. In the first set, lipase (Lipolase 100L, Type EX, lipase units 100 KLU/g) was added to the preformed hydrogel of Apn-7-COOH (2 wt %) and kept it at 37° C. which is lower than gel melting temperature. It was anticipated that lipase (esterase) would hydrolyze the ester bond of prodrug-based gelator (Apn-7-COOH) to release acetaminophen and dicarboxylic acid as the hydrogel degrades. As expected, after 48 hours the gel completely degraded and became a clear solution.
To test this further, and examine multiple (two) drugs delivery (FIGS. 6A-6E), curcumin was encapsulated in the hydrogel of Apn-7-COOH (2 wt %) and to that lipase was added and kept it at 37° C. Absorbance spectra were recorded on aliquots which were collected (after the addition of enzyme to the hydrogel) at regular intervals (FIG. 6C). […] The concentration of the enzyme used in these in vitro experiments is higher than physiological concentration of esterases (for example, physiological concentration of cholesterol esterase is 7 U/ml).
Increasing either concentration of enzyme or incubation temperature to 45° C. doubles the drug release rate, which was correlating with previous findings.
To analyze the gel degradation mechanism, another prodrug Apn-5-ether-COOH was synthesized (FIG. 2), where hydrocarbon chain (which is bearing terminal carboxylic acid) was connected to the acetaminophen through an ether bond (C—O—C) to prevent the esterolytic cleavage by lipase.

`CC(=O)Nc1ccc(OC(=O)CCCCCCC(=O)O)cc1` [Apn-7-COOH]: the “adipogenic differentiation, Oil Red O (ORO) staining” value in data set [1] was “robust capacity; also recorded: equally stained for ORO”. Also, the “time after which absorbance of released curcumin did not increase” value in data set [2] (curcumin released from degradation of hydrogel) amounted to 24 h. Moreover, the “time of first aliquots showing curcumin absorption maxima (425 nm)” value in data set [2] (curcumin-encapsulated hydrogel 2 wt %, lipase, 37° C.) was 4 h. For the same compound, the “burst release of curcumin” value in data set [2] (curcumin-encapsulated hydrogel 2 wt %, lipase, 37° C., absorbance maxima vs time) is “absence of burst release”. For the same compound, in data set [2] (hydrogel 2 wt %, lipase, 37° C., 48 hours), the “products found by thin-layer chromatography after gel degradation” value was “acetaminophen and α,ω-dicarboxylicacid were generated”. The “time after which the gel completely degraded” value in data set [2] (preformed hydrogel 2 wt %, lipase added, 37° C.) amounted to 48 h.
